Assay results: ChEMBL document CHEMBL1201862, “PubChem BioAssay data set” (2004)
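Growth conditions: 96-well plates. Treatment: test compound, 48 hours, 5 concentrations. Analysis: linear interpolation between bracketing concentrations; unreached endpoints set to highest concentration. The concentration for 50% growth inhibition is given as GI50.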 Calls of active or inactive are those of the source. Cut-off read from the data, not from the text of the source: active = GI50 up to about 1.1 µM and inactive = higher.

How the values were obtained:
Assay in all cases: NCI anticancer screen, dose series, 48 h
OVCAR-8 = tested on: OVCAR-8
MDA-MB-231 = tested on: MDA-MB-231
LOX IMVI = tested on: LOX IMVI
NCI-H23 = tested on: NCI-H23
SNB-75 = tested on: SNB-75
SF-295 = tested on: SF-295
RXF 393 = tested on: RXF 393
DU-145 = tested on: DU-145
HCT-15 = tested on: HCT-15
A498 = tested on: A498
Hs-578T = tested on: Hs-578T
UACC-257 = tested on: UACC-257
HOP-92 = tested on: HOP-92
RPMI-8226 = tested on: RPMI-8226
NCI-H522 = tested on: NCI-H522
NCI-H460 = tested on: NCI-H460
CCRF-CEM = tested on: CCRF-CEM
HCC 2998 = tested on: HCC 2998
SF-268 = tested on: SF-268

Structure (SMILES) | GI50 (OVCAR-8) | GI50 (MDA-MB-231) | GI50 (LOX IMVI) | GI50 (NCI-H23) | GI50 (SNB-75) | GI50 (SF-295) | GI50 (RXF 393) | GI50 (DU-145) | GI50 (HCT-15) [µM] | GI50 (A498) | GI50 (Hs-578T) | GI50 (UACC-257) | GI50 (HOP-92) | GI50 (RPMI-8226) | GI50 (NCI-H522) | GI50 (NCI-H460) | GI50 (CCRF-CEM) | GI50 (HCC 2998) | GI50 (SF-268)
CCN1CCN(c2nc3ccccc3c3c2CCOc2ccccc2-3)CC1 | > 45.1 µM (inactive) | 23.5 µM (inactive) | 16.5 µM (inactive) | > 62.5 µM (inactive) | > 40.6 µM (inactive) | 27.4 µM (inactive) | 25.2 µM (inactive) | > 31.6 µM (inactive) | 16.6 | > 39.3 µM (inactive) | 29.9 µM (inactive) | 18.1 µM (inactive) | 28.8 µM (inactive) | 19.8 µM (inactive) | 26.4 µM (inactive) | 27.2 µM (inactive) | 21.3 µM (inactive) | 18.6 µM (inactive) | 39.1 µM (inactive)
O=C(CNc1ccc(Cl)cc1Cl)Nn1c(-c2ccccc2)nc2ccccc2c1=O | 35 µM (inactive) | 14.8 µM (inactive) | 9.95 µM (inactive) | 12.6 µM (inactive) | 15.3 µM (inactive) | 14.9 µM (inactive) | 18.9 µM (inactive) | 14.5 µM (inactive) | 19.1 | > 10 µM (inactive) | 23.9 µM (inactive) | 21.6 µM (inactive) | 4.33 µM (inactive) | 21.3 µM (inactive) | 12 µM (inactive) | 15.7 µM (inactive) | 2.9 µM (inactive) | 17.7 µM (inactive) | 3.86 µM (inactive)
Cn1c(=O)c2c(nc3n(C)c(=O)c4ccccc4n23)n(C)c1=O | 33 µM (inactive) | > 100 µM (inactive) | 38.7 µM (inactive) | 40.4 µM (inactive) | 40.1 µM (inactive) | 22.4 µM (inactive) | > 61.8 µM (inactive) | 21.9 µM (inactive) | 35.1 | 18.9 µM (inactive) | 59.3 µM (inactive) | > 100 µM (inactive) | 43.6 µM (inactive) | 20.7 µM (inactive) | 25.1 µM (inactive) | 6.93 µM (inactive) | 13.5 µM (inactive) | > 100 µM (inactive) | 68.5 µM (inactive)
COc1cc(C2=N/C(=C/c3cccs3)C(=O)O2)cc(OC)c1OC | > 100 µM (inactive) | > 100 µM (inactive) | > 100 µM (inactive) | > 100 µM (inactive) | > 100 µM (inactive) | > 100 µM (inactive) | > 100 µM (inactive) | > 100 µM (inactive) | > 100 | > 100 µM (inactive) | > 100 µM (inactive) | > 100 µM (inactive) | > 100 µM (inactive) | > 100 µM (inactive) | > 100 µM (inactive) | > 100 µM (inactive) | > 100 µM (inactive) | > 100 µM (inactive) | > 100 µM (inactive)
COC(=O)CSSCc1ccc([N+](=O)[O-])cc1 | 28.6 µM (inactive) | 19.1 µM (inactive) | 12.8 µM (inactive) | 32 µM (inactive) | 20 µM (inactive) | 19 µM (inactive) | 18.4 µM (inactive) | 19.5 µM (inactive) | 16.7 | 21.6 µM (inactive) | 21.2 µM (inactive) | 26.5 µM (inactive) | 27.1 µM (inactive) | 18 µM (inactive) | 13.4 µM (inactive) | 33.7 µM (inactive) | 5.6 µM (inactive) | 21.4 µM (inactive) | 21.8 µM (inactive)
COc1cccc2c3ccccc3c3nc[nH]c3c12 | > 100 µM (inactive) | 25.4 µM (inactive) | 33.8 µM (inactive) | > 100 µM (inactive) | > 47.8 µM (inactive) | 16 µM (inactive) | 17.5 µM (inactive) | 46.9 µM (inactive) | 27.7 | 23.1 µM (inactive) | < 0.01 µM (active) | 23.6 µM (inactive) | 27.3 µM (inactive) | 21.9 µM (inactive) | 24.5 µM (inactive) | 23.7 µM (inactive) | 12.4 µM (inactive) | 23.9 µM (inactive) | 62.1 µM (inactive)
O=C(c1c(F)c(F)c(F)c(F)c1F)N1CCN(C(=O)c2c(F)c(F)c(F)c(F)c2F)C1=S | 5.05 µM (inactive) | 6.75 µM (inactive) | 2.51 µM (inactive) | 6.81 µM (inactive) | 11 µM (inactive) | 15.1 µM (inactive) | 2.62 µM (inactive) | 14 µM (inactive) | 2.2 | 18.1 µM (inactive) | 4.66 µM (inactive) | 8.34 µM (inactive) | 3.89 µM (inactive) | 2.43 µM (inactive) | 0.582 µM (active) | 10.7 µM (inactive) | 2.79 µM (inactive) | 9.57 µM (inactive) | 11.3 µM (inactive)
